The numbers were not newly measured in patent US7091182B2, “Method for assisting in differential diagnosis and treatment of autistic syndromes” (Repligen Corporation, priority 1997, dated 2006), which cites them from elsewhere.

The series relates to autistic patients. The note with it: cited from earlier work.

For `O=C1CC[C@@]2(O)[C@H]3Cc4ccc(O)c5c4[C@@]2(CCN3CC2CC2)[C@H]1O5` [naltrexone], under “double-blinded studies”, the social behavior result is “failed to produce significant changes”. Where the note is “open trial in autistic children”, the positive response is 8 to 10 children were judged to show a positive response.
